From patent US20040110775A1, “Cyclin dependent kinase inhibiting purine derivatives” (priority 2001, published 2004)
Like-named read-outs stand apart in the source and are kept apart here.

What was measured:
p34 cdc2(CDK1)/cyclinB = assay: CDK assay: histone H1 phosphorylation with [32P]ATP by cdc2/cyclinB kinase; type: biochemical, starfish (Marthasterias glacialis); details: read-out: IC50 ± SD CDK1
Method: Assays are available for testing the inhibitory activity of the compounds of interest against a range of CDK/cyclin complexes, including CDK1/cyclin A, CDK1/cyclin B, CDK1/cyclin F, CDK2/cyclin A, CDK2/cyclin E, CDK4/cyclin D, CDK5/35 and CDK6/cyclin D3. […]
(§1) By way of example, however, a typical protocol is summarised below.
Buffer C (containing 6 mM β-glycerophosphate, 30 mM nitrophenyl phosphate, 25 mM MOPS pH 7.0, 5 mM EGTA, 15 mM MgCl2, […] and 0.1 mM sodium orthovanadate) is made up as follows:
Affinity purified p34 cdc2(CDK1)/cyclinB from M-phase starfish (Marthasterias glacialis) in 20% glycerol is stored at −80° C. in chest freezer
Histone H1 (type III-S (Sigma) 4° C.) 5 mg/ml in buffer C.
[^32P]ATP 75 mM: Make up using (multiples of) the following proportions:
DMSO cannot exceed 1% in the assay mixture. Inhibitors are added at 1/10 final assay volume and 10× final strength. DMSO stocks must therefore be diluted to 10× final desired concentration in ≦10% DMSO, ≧90% buffer C.
All reagents (except DMSO stocks) should be kept on ice until assay initiated.
Start reaction in each tube at 30 second intervals b)y adding
5 ml [^32P]ATP vortexing and placing in rack in waterbath at 30° C.
Terminate reaction after 10 min at 30 second intervals in tubes in same order by removing […] reaction mix and spotting onto appropriately labelled filter, allowing to dry for 20-30 seconds and transferring to stirring 1% phosphoric acid.
Blank incubation is performed as above but without histone (add […] buffer C instead) Washing blank is […] ATP added directly to filter.
Wash filters 5-6 times 5 min each
Dry the filters on paper towel
Count in mini scintillation vials with 5 ml scintillant.
NB. The assay can be simplified by making up stock reaction mix as follows:
(1 part cdc2/cyclinB, 16 parts buffer C, 5 parts histone H1)×Number of assay tubes+1 and add […] to each assay tube containing […] buffer C±inhibitor.
It is still necessary, however, to make up assay blank (i.e. without histone) separately.

[1] = disclosed in WO 99/02162; cited from earlier work
[2] = test system: CDK1(cdc2)/cyclin B complexes; details: disclosed in WO 99/02162; cited from earlier work
CDK2 = CDK2 (Homo sapiens, UniProt P24941); assay: Inhibition of CDK2 (CDK inhibition assay); type: biochemical; details: read-out: IC50 ± SD CDK2
Source text: Assays are available for testing the inhibitory activity of the compounds of interest against a range of CDK/cyclin complexes, including CDK1/cyclin A, CDK1/cyclin B, CDK1/cyclin F, CDK2/cyclin A, CDK2/cyclin E, CDK4/cyclin D, CDK5/35 and CDK6/cyclin D3.
Apart from reference compounds, the compounds listed are accompanied by an NU reference or identification code number.
as §1

CDK4 = CDK4 (Homo sapiens, UniProt P11802); details: cited from earlier work
CDK4, sequence (P11802 whole entry, species assumed): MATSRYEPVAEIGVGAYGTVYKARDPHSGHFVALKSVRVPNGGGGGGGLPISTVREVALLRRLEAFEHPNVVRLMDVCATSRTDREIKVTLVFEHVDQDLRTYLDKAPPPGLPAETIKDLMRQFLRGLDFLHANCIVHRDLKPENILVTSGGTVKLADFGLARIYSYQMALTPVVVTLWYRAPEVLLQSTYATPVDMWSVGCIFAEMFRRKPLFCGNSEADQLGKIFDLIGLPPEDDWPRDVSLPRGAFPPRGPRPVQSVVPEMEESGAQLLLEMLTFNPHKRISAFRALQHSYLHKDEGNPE
CDK4, sequence (P24385 whole entry partner, species assumed): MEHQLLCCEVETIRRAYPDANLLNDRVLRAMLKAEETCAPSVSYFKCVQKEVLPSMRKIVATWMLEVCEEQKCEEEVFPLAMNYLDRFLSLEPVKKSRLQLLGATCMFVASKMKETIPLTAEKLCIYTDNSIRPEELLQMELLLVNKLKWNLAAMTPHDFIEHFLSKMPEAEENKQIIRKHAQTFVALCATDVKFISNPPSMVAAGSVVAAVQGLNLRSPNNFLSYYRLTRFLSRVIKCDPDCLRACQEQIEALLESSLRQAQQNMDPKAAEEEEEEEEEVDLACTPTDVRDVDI

CDK6 = CDK6 (Homo sapiens, UniProt Q00534); details: cited from earlier work
CDK6, sequence (Q00534 whole entry, species assumed): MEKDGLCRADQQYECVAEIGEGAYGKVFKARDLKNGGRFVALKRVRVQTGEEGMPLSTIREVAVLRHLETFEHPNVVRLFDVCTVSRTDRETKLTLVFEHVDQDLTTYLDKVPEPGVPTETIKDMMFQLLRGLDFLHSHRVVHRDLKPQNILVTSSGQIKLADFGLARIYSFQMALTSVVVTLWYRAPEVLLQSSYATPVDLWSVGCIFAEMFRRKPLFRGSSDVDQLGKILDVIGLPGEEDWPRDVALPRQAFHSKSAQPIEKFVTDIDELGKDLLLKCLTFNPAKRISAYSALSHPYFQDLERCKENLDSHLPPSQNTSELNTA
CDK6, sequence (P30281 whole entry partner, species assumed): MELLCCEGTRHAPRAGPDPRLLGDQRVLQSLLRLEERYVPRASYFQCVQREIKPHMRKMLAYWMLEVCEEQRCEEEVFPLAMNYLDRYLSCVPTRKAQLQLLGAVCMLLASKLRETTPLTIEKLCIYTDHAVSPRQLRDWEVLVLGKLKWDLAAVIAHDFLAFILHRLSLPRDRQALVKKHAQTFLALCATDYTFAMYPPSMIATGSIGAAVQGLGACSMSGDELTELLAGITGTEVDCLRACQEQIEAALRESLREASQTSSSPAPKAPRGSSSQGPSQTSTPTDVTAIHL

[3] = test system: many common kinases other than CDK's; details: cited from earlier work

Row | Compound | IC50 (p34 cdc2(CDK1)/cyclinB; values in nM) [µM] | IC50 (CDK2; values in nM) [nM] | further results
1 | Nc1nc(OCC2CCCCC2)c2nc[nH]c2n1 [NU2058, 2-Amino-O^6-cyclohexylmethylpurine] |  |  | IC50 (p34 cdc2(CDK1)/cyclinB; values given in μM): 7 ± 0.7 µM; cytotoxicity [1]: cytotoxic; inhibitory activity against CDK1(cdc2)/cyclin B complexes [2]: very high inhibitory activity, comparable to that of olomoucine
2 | O=S(=O)(Nc1nccs1)c1ccc(Nc2nc(OCC3CCCCC3)c3nc[nH]c3n2)cc1 [NU6145, 4-(6-Cyclohexylmethoxy-9H-purin-2-ylamino)-N-thiazol-2-ylbenzenesulfonamide] | 0.037 | 24 | 
3 | CC(O)CNS(=O)(=O)c1ccc(Nc2nc(OCC3CCCCC3)c3nc[nH]c3n2)cc1 (centres unmarked) [NU6146, 4-(6-Cyclohexylmethoxy-9H-purin-2-ylamino)-N-(2-hydroxypropyl)benzenesulfonamide] | 0.014 ± 0.007 | 5 ± 1 | 
4 | O=S(=O)(Nc1ccccc1)c1ccc(Nc2nc(OCC3CCCCC3)c3nc[nH]c3n2)cc1 [NU6152, 4-(6-Cyclohexylmethoxy-9H-purin-2-ylamino)-N-phenyl-benzenesulfonamide] |  |  | IC50 (p34 cdc2(CDK1)/cyclinB; values given in μM): 0.4 ± 0.1 µM; IC50 (CDK2; values given in μM): 200 ± 20 nM
5 | O=S(=O)(NCC(O)CO)c1ccc(Nc2nc(OCC3CCCCC3)c3nc[nH]c3n2)cc1 (centres unmarked) [NU6153, 4-(6-Cyclohexylmethoxy-9H-purin-2-ylamino)-N-(2,3-dihydroxypropyl)benzenesulfonamide] | 0.007 ± 0.001 | 5 ± 2 | 
6 | O=S(=O)(Nc1ccccn1)c1ccc(Nc2nc(OCC3CCCCC3)c3nc[nH]c3n2)cc1 [NU6154, 4-(6-Cyclohexylmethoxy-9H-purin-2-ylamino)-(N-pyridin-2-yl)benzenesulfonamide] | 0.02 ± 0.006 | 27 ± 2 | 
7 | CC1CCCCC1COc1nc(Nc2ccc(S(N)(=O)=O)cc2)nc2[nH]cnc12 (centres unmarked) [NU6158, 4-[6-(2-Methyl-cyclohexylmethoxy)-9H-purin-2-ylamino]benzenesulfonamide] | 0.006 ± 0.001 | 4 ± 0.3 | 
8 | Cc1cc(NS(=O)(=O)c2ccc(Nc3nc(OCC4CCCCC4)c4nc[nH]c4n3)cc2)nc(C)n1 [NU6160, 4-(6-Cyclohexylmethoxy-9H-purin-2-ylamino)-N-(2,6dimethylpyrimidin-4-yl)-benzenesulfonamide] | 0.028 ± 0.002 | 33 ± 6 | 
9 | NS(=O)(=O)c1ccc(Nc2nc(OCC3CC=CCC3)c3nc[nH]c3n2)cc1 (centres unmarked) [NU6162, 4-[6-(Cyclohex-3-enylmethoxy)-9H-purin-2ylamino]-benzenesulfonamide] | 0.021 ± 0.004 | 10 ± 1 | 
10 | O=S(=O)(NCC(F)(F)F)c1ccc(Nc2nc(OCC3CCCCC3)c3nc[nH]c3n2)cc1 [NU6163, 4-(6-Cyclohexylmethoxy-9H-purin-2-ylamino)-N-(2,2,2-trifluoroethyl)-benzenesulfonamide] | 0.066 ± 0.005 | 51 ± 16 | 
11 | NC(=O)Cc1ccc(Nc2nc(OCC3CCCCC3)c3nc[nH]c3n2)cc1 [NU6164, 2-[4-(6-Cyclohexylmethoxy-9H-purin-2-ylamino)-phenyl]acetamide] | 0.136 ± 0.022 | 132 ± 20 | 
12 | NS(=O)(=O)c1ccc(Nc2nc(OCC3CCCC3)c3nc[nH]c3n2)cc1 [NU6166, 4-[6-Cyclopentylmethoxy-9H-purin-2-ylamino)-benzenesulfonamide] | 0.014 ± 0.003 | 7 ± 1 | 
13 | C[C@H](O)CNS(=O)(=O)c1ccc(Nc2nc(OCC3CCCCC3)c3nc[nH]c3n2)cc1 [NU6167, 4-(6-Cyclohexylmethoxy-9H-purin-2-ylamino)-N-(2-hydroxypropyl)benzenesulfonamide] | 0.009 ± 0.0002 | 6 ± 1 | 
14 | Cn1cnc2c(NCc3ccccc3)nc(NCCO)nc21 [Olomoucine, 2-(2-hydroxyethylamino)-6-benzylamino-9-methyl-purine] |  |  | activity against CDK4 (CDK4): neither has been found to be active; activity against CDK6 (CDK6): neither has been found to be active; inhibitory activity in relation to many common kinases other than CDK's [3]: total lack of inhibitory activity
15 | CC[C@H](CO)Nc1nc(NCc2ccccc2)c2ncn(C(C)C)c2n1 [roscovitine, 6-(benzylamino)-2(R)-[{1-(hydroxy-methyl)propyl}amino]-9-isopropylpurine] |  |  | activity against CDK4 (CDK4): neither has been found to be active; activity against CDK6 (CDK6): neither has been found to be active
